Values joined by “and” are separate entries in the source; they are usually repeats but may differ in a detail not shown here. Equal entries are not always repeated. Toxic doses and inconclusive results are not listed. Peptide text beside a SMILES is read from it. * marks the point of attachment. Cbz = O=C(OCc1ccccc1)*

This experiment concerns L1210 leukemia ip in BDF1 mice, survival T/C. In words: NCI In Vivo Anticancer Drug Screen. Data for tumor model L1210 Leukemia (intraperitoneal) in B6D2F1 (BDF1) mice. To be noted: higher = longer survival. In outline:
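Each compound was tested against a transplantable tumor grown in mice. The endpoint was survival, with treated animals benchmarked against vehicle controls as a simple ratio.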

The mark [1] stands for this setting: endpoint: mean survival time, dose: 12.5 mg/kg/injection, schedule: Q01DX009 (ip), vehicle: Klucel (hydroxypropylcellulose) (HPC).
The mark [2] stands for this setting: endpoint: mean survival time, dose: 25.0 mg/kg/injection, schedule: Q01DX009 (ip), vehicle: Klucel (hydroxypropylcellulose) (HPC).
Setting [3] is: endpoint: mean survival time, dose: 100.0 mg/kg/injection, schedule: Q04DX003 (ip), vehicle: saline.
Setting [4] is: endpoint: mean survival time, dose: 200.0 mg/kg/injection, schedule: Q04DX003 (ip), vehicle: saline.
Where [5] appears, read: endpoint: mean survival time, dose: 400.0 mg/kg/injection, schedule: Q04DX003 (ip), vehicle: saline.
Setting [6] is: endpoint: mean survival time, dose: 100.0 mg/kg/injection, schedule: Q01DX001 (ip), vehicle: Klucel (hydroxypropylcellulose) (HPC).
Where [7] appears, read: endpoint: mean survival time, dose: 200.0 mg/kg/injection, schedule: Q01DX001 (ip), vehicle: Klucel (hydroxypropylcellulose) (HPC).
[8] abbreviates: endpoint: mean survival time, dose: 400.0 mg/kg/injection, schedule: Q01DX001 (ip), vehicle: Klucel (hydroxypropylcellulose) (HPC).
Where [9] appears, read: endpoint: mean survival time, dose: 100.0 mg/kg/injection, schedule: Q01DX009 (ip), vehicle: saline with Tween-80.
Where [10] appears, read: endpoint: mean survival time, dose: 200.0 mg/kg/injection, schedule: Q01DX009 (ip), vehicle: saline with Tween-80.

For `CCCCCC[Se][Se]CCCCCC`, the T/C is 96 % of control (endpoint: mean survival time, dose: 6.25 mg/kg/injection, schedule: Q01DX009 (ip), vehicle: Klucel (hydroxypropylcellulose) (HPC)); 96 % of control under setting [1]; 91 % of control under setting [2]; 90 % of control (endpoint: mean survival time, dose: 25.0 mg/kg/injection, schedule: Q04DX003 (ip), vehicle: Klucel (hydroxypropylcellulose) (HPC)); 103 % of control and 107 % of control (endpoint: mean survival time, dose: 50.0 mg/kg/injection, schedule: Q04DX003 (ip), vehicle: Klucel (hydroxypropylcellulose) (HPC)).

For `O=C(NC(CSC(c1ccccc1)(c1ccccc1)c1ccccc1)C(=O)O)OCc1ccccc1` (stereo not drawn), the T/C is, setting by setting: under setting [3], 105 % of control; under setting [4], 100 % of control; under setting [5], 105 % of control.

`O=C(NO)c1ccccn1`: the T/C is 97 % of control (endpoint: mean survival time, dose: 90.0 mg/kg/injection, schedule: Q01DX015 (ip), vehicle: water); 101 % of control (endpoint: mean survival time, dose: 130.0 mg/kg/injection, schedule: Q01DX015 (ip), vehicle: water); 97 % of control (endpoint: mean survival time, dose: 133.0 mg/kg/injection, schedule: Q01DX015 (ip), vehicle: water); 110 % of control (endpoint: mean survival time, dose: 200.0 mg/kg/injection, schedule: Q01DX015 (ip), vehicle: water).

As for `CN(N=O)C(=O)NC1C(O)C(CO)OC1n1ccc(=O)[nH]c1=O` (stereo not drawn), the T/C was 98 % of control under setting [3], 96 % of control under setting [4] and 102 % of control under setting [5].

With `O=S(=O)(OC1CC2C=CC1C21CC1)c1ccc(Br)cc1` (stereo not drawn), the T/C runs as follows: under setting [6], 98 % of control; under setting [7], 97 % of control; under setting [8], 94 % of control.

For the compound `OC12c3ccccc3C(O)(c3ccccc31)C1c3ccccc3C2c2ccccc21`, the T/C runs as follows: (endpoint: mean survival time, dose: 50.0 mg/kg/injection, schedule: Q04DX002 (ip), vehicle: Klucel (hydroxypropylcellulose) (HPC)) 101 % of control; (endpoint: mean survival time, dose: 100.0 mg/kg/injection, schedule: Q04DX002 (ip), vehicle: Klucel (hydroxypropylcellulose) (HPC)) 93 % of control.

With `C[n+]1c2ccccc2c(Nc2ccc(NS(=O)(=O)CCCCN=C(N)N)cc2)c2ccc(N)cc21`, the T/C was 167 % of control (endpoint: mean survival time, dose: 0.5 mg/kg/injection, schedule: Q03HX008 (ip), vehicle: water); 186 % of control (endpoint: mean survival time, dose: 1.5 mg/kg/injection, schedule: Q01DX009 (ip), vehicle: water); 160 % of control (endpoint: mean survival time, dose: 2.0 mg/kg/injection, schedule: Q03HX008 (ip), vehicle: water); 160 % of control and 212 % of control (endpoint: mean survival time, dose: 3.0 mg/kg/injection, schedule: Q01DX009 (ip), vehicle: water); 240 % of control (endpoint: mean survival time, dose: 3.0 mg/kg/injection, schedule: Q03HX008 (ip), vehicle: water); 191 % of control (endpoint: mean survival time, dose: 3.12 mg/kg/injection, schedule: Q04DX003 (ip), vehicle: water). Moreover, the T/C runs as follows: (endpoint: mean survival time, dose: 6.0 mg/kg/injection, schedule: Q01DX009 (ip), vehicle: water) 176 % of control and 218 % of control; (endpoint: mean survival time, dose: 6.0 mg/kg/injection, schedule: Q03HX008 (ip), vehicle: water) 327 % of control; (endpoint: mean survival time, dose: 6.25 mg/kg/injection, schedule: Q04DX003 (ip), vehicle: water) 152 % of control and 170 % of control; (endpoint: mean survival time, dose: 12.0 mg/kg/injection, schedule: Q01DX009 (ip), vehicle: water) 269 % of control; (endpoint: mean survival time, dose: 12.5 mg/kg/injection, schedule: Q01DX001 (ip), vehicle: water) 186 % of control; (endpoint: mean survival time, dose: 12.5 mg/kg/injection, schedule: Q04DX003 (ip), vehicle: water) 171 % of control and 202 % of control. In addition, the T/C by setting is: (endpoint: mean survival time, dose: 25.0 mg/kg/injection, schedule: Q01DX001 (ip), vehicle: water) 207 % of control; (endpoint: mean survival time, dose: 25.0 mg/kg/injection, schedule: Q04DX003 (ip), vehicle: water) 194 % of control and 225 % of control; (endpoint: median survival time, dose: 3.0 mg/kg/injection, schedule: Q01DX009 (oral), vehicle: water) 97 % of control; (endpoint: median survival time, dose: 6.0 mg/kg/injection, schedule: Q01DX009 (oral), vehicle: water) 103 % of control; (endpoint: median survival time, dose: 6.0 mg/kg/injection, schedule: Q01DX009 (sc), vehicle: water) 166 % of control; (endpoint: median survival time, dose: 12.0 mg/kg/injection, schedule: Q01DX009 (oral), vehicle: water) 98 % of control. Also, the T/C runs as follows: (endpoint: median survival time, dose: 12.0 mg/kg/injection, schedule: Q01DX009 (sc), vehicle: water) 163 % of control; (endpoint: median survival time, dose: 24.0 mg/kg/injection, schedule: Q01DX009 (oral), vehicle: water) 94 % of control; (endpoint: median survival time, dose: 48.0 mg/kg/injection, schedule: Q01DX009 (oral), vehicle: water) 95 % of control.

As for `O=C1c2ccccc2C(=O)N1CNc1cccc(Cl)c1`, the T/C is 88 % of control under setting [9]; 102 % of control (endpoint: mean survival time, dose: 100.0 mg/kg/injection, schedule: Q04DX002 (ip), vehicle: saline with Tween-80); 91 % of control under setting [10]; 105 % of control (endpoint: mean survival time, dose: 200.0 mg/kg/injection, schedule: Q04DX002 (ip), vehicle: saline with Tween-80); 97 % of control (endpoint: mean survival time, dose: 400.0 mg/kg/injection, schedule: Q04DX002 (ip), vehicle: saline with Tween-80).

As to `O=C1c2cccc3cc([N+](=O)[O-])cc(c23)C(=O)N1CCCN(CCO)CCO`, the T/C reads like this: under setting [1], 104 % of control; under setting [2], 105 % of control; (endpoint: mean survival time, dose: 50.0 mg/kg/injection, schedule: Q01DX009 (ip), vehicle: Klucel (hydroxypropylcellulose) (HPC)) 91 % of control.

Consider `OC1(c2ccc(Cl)cc2)CCN(C2CC2c2ccccc2)CC1` (stereo not drawn), for which the T/C under setting [6] was 98 % of control, the T/C under setting [7] was 97 % of control and the T/C under setting [8] is 98 % of control.

Consider `C=C(Cl)CSc1ncnc2nc[nH]c12`, for which, where the note is “endpoint: mean survival time, dose: 75.0 mg/kg/injection, schedule: Q01DX001 (ip), vehicle: saline”, the T/C is 98 % of control.

`O=C(O)C(Cc1ccccc1)NC(=O)C(F)(F)F` (stereo not drawn): the T/C (endpoint: mean survival time, dose: 100.0 mg/kg/injection, schedule: Q04DX003 (ip), vehicle: other) was 90 % of control and the T/C (endpoint: mean survival time, dose: 200.0 mg/kg/injection, schedule: Q04DX003 (ip), vehicle: other) is 89 % of control.

Regarding `C=COC1CCCCC1`, the T/C is 101 % of control (endpoint: mean survival time, dose: 100.0 mg/kg/injection, schedule: Q01DX009 (ip), vehicle: Klucel (hydroxypropylcellulose) (HPC)); 97 % of control (endpoint: mean survival time, dose: 100.0 mg/kg/injection, schedule: Q04DX003 (ip), vehicle: Klucel (hydroxypropylcellulose) (HPC)); 100 % of control (endpoint: mean survival time, dose: 200.0 mg/kg/injection, schedule: Q01DX009 (ip), vehicle: Klucel (hydroxypropylcellulose) (HPC)); 90 % of control (endpoint: mean survival time, dose: 200.0 mg/kg/injection, schedule: Q04DX003 (ip), vehicle: Klucel (hydroxypropylcellulose) (HPC)); 95 % of control (endpoint: mean survival time, dose: 400.0 mg/kg/injection, schedule: Q01DX009 (ip), vehicle: Klucel (hydroxypropylcellulose) (HPC)); 88 % of control (endpoint: mean survival time, dose: 400.0 mg/kg/injection, schedule: Q04DX003 (ip), vehicle: Klucel (hydroxypropylcellulose) (HPC)).

For `CC(NC(=O)C(C)NC(=O)OCc1ccccc1)C(N)=O` (stereo not drawn) (Cbz-Ala-Ala-NH2; configuration not given here), the T/C by setting is: under setting [9], 88 % of control; under setting [10], 88 % of control; (endpoint: mean survival time, dose: 400.0 mg/kg/injection, schedule: Q01DX009 (ip), vehicle: saline with Tween-80) 88 % of control.

Turning to `C=CCc1ccc(OC(=O)Nc2ccc(S(=O)(=O)NC3CCCCC3)cc2)c(OC)c1`, the T/C (endpoint: mean survival time, dose: 100.0 mg/kg/injection, schedule: Q01DX001 (ip), vehicle: saline) was 91 % of control; the T/C (endpoint: mean survival time, dose: 200.0 mg/kg/injection, schedule: Q01DX001 (ip), vehicle: saline) was 94 % of control; the T/C (endpoint: mean survival time, dose: 400.0 mg/kg/injection, schedule: Q01DX001 (ip), vehicle: saline) was 96 % of control.

In the case of `CCCCCCCCCCCCOC(N)=O`, the T/C is 103 % of control (endpoint: mean survival time, dose: 50.0 mg/kg/injection, schedule: Q01DX009 (ip), vehicle: saline with Tween-80); 101 % of control under setting [9]; 103 % of control (endpoint: mean survival time, dose: 100.0 mg/kg/injection, schedule: Q04DX003 (ip), vehicle: saline with Tween-80); 101 % of control under setting [10]; 108 % of control (endpoint: mean survival time, dose: 200.0 mg/kg/injection, schedule: Q04DX003 (ip), vehicle: saline with Tween-80); 88 % of control (endpoint: mean survival time, dose: 400.0 mg/kg/injection, schedule: Q04DX003 (ip), vehicle: saline with Tween-80).

The values above are taken from PubChem BioAssay AID248 (DTP/NCI, 2004).
